Laboratory results from ChEMBL document CHEMBL5126637, “Discovery of Phenolic Matrix Metalloproteinase Inhibitors by Peptide Microarray for Osteosarcoma Treatment” (J Nat Prod, 2022).
Active and inactive are the calls of the source. The rule behind the calls is not given here.

Experiments:
[1] = Toxicity in human HL7702 cells assessed as cell viability at 2.5 umol/L incubated for 24 hrs by MTT assay relative to control; format: cell-based, L02; conditions: dose 2.5 µmol/L, read-out: Activity
[2] = Toxicity in Kunming mouse assessed as induction of adverse effect or tissue damage in major organs measured after 14 days; conditions: in vivo, 336 h, time 14 day
[3] = tested on: U2OS; assay: Antitumor activity against human U2OS cells xenografted in NOD/SCID mouse assessed as time duration with 100% survival with at 34 ug, iv dosed once every 2 days for 6 days successively relative to control; format: functional; conditions: dose 34 µg, time 6 day
[4] = Toxicity in human NCM460 cells assessed as cell viability at 2.5 umol/L incubated for 24 hrs by MTT assay relative to control; format: cell-based; conditions: dose 2.5 µmol/L, read-out: Activity
[5] = Toxicity in human U2OS cells assessed as cell viability at 2.5 umol/L incubated for 24 hrs by MTT assay relative to control; format: cell-based; conditions: dose 2.5 µmol/L, read-out: Activity
[6] = tested on: U2OS; assay: Inhibition of cell migration of human U2OS cells at 2.5 umol/L incubated for 24 hrs by would healing assay; format: functional, cell-based; conditions: dose 2.5 µmol/L
[7] = target: Matrix metalloproteinase-9 (Homo sapiens, UniProt P14780); assay: Inhibition of MMP9 in human U2OS cells at 5 umol/L by peptide microarray-based fluorescence assay; format: cell-based; conditions: dose 5.0 µmol/L
Sequence of Matrix metalloproteinase-9 (P14780 whole entry): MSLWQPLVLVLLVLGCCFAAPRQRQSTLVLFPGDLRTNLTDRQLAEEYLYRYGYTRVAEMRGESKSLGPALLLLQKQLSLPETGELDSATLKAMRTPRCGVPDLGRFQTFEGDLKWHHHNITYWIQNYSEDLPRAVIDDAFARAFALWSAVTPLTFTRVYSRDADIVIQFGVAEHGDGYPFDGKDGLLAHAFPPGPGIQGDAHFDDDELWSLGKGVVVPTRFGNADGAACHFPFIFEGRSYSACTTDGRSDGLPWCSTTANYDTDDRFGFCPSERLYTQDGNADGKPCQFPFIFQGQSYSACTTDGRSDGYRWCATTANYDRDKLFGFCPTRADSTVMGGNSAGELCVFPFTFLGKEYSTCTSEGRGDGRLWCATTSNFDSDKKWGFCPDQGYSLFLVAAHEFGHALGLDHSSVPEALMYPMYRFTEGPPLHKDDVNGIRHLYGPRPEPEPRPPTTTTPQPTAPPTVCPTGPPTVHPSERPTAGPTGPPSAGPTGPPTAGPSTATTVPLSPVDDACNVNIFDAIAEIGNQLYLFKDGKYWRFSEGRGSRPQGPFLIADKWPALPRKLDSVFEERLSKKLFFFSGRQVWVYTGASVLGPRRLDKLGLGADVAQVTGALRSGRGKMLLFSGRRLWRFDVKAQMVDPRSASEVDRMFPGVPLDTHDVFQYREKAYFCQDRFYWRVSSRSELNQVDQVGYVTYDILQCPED

[8] = Toxicity in human MDA-MB-231 cells assessed as cell viability at 2.5 umol/L incubated for 24 hrs by MTT assay relative to control; format: cell-based; conditions: dose 2.5 µmol/L, read-out: Activity
[9] = tested on: U2OS; assay: Antitumor activity against human U2OS cells xenografted in NOD/SCID mouse assessed as inhibition of growth of both primary and metastatic tumors at 34 ug, iv dosed once every 2 days for 6 days successively relative to control; format: functional, organism-based; conditions: dose 34.0 µg, time 6.0 day
[10] = tested on: U2OS; assay: Antitumor activity against human U2OS cells xenografted in NOD/SCID mouse assessed as inhibition of tumor growth at 34 ug, iv dosed once every 2 days for 6 days successively relative to control; format: functional; conditions: dose 34 µg, time 6 day
[11] = Toxicity in human HEK293T cells assessed as cell viability at 2.5 umol/L incubated for 24 hrs by MTT assay relative to control; format: cell-based, HEK-293T; conditions: dose 2.5 µmol/L, read-out: Activity
[12] = target: T1, Collagenase 3 (Homo sapiens, UniProt P45452); assay: Inhibition of MMP13 in human U2OS cells at 5 umol/L by peptide microarray-based fluorescence assay; format: cell-based; conditions: dose 5.0 µmol/L
[13] = target: T1, Collagenase 3; assay: Inhibition of MMP13 in human U2OS cells by peptide microarray-based fluorescence assay; format: cell-based
[14] = Toxicity in Kunming mouse assessed as effect on body weight changes measured after 14 days; conditions: in vivo, 336 h, time 14 day
[15] = tested on: U2OS; assay: Antitumor activity against human U2OS cells xenografted in NOD/SCID mouse assessed as inhibition of distant organ metastasis at 34 ug, iv dosed once every 2 days for 6 days successively relative to control; format: functional, organism-based; conditions: dose 34.0 µg, time 6.0 day
[16] = Toxicity in human MCF7 cells assessed as cell viability at 2.5 umol/L incubated for 24 hrs by MTT assay relative to control; format: cell-based; conditions: dose 2.5 µmol/L, read-out: Activity
[17] = Toxicity in Kunming mouse assessed as effect on blood components measured after 14 days; conditions: in vivo, 336 h, time 14 day
[18] = target: T1, Collagenase 3; assay: Inhibition of MMP13 in human U2OS cells at 1 umol/L by peptide microarray-based fluorescence assay; format: cell-based; conditions: dose 1.0 µmol/L
[19] = Toxicity in human HCT-116 cells assessed as cell viability at 2.5 umol/L incubated for 24 hrs by MTT assay relative to control; format: cell-based; conditions: dose 2.5 µmol/L, read-out: Activity
[20] = target: T2, Interstitial collagenase (Homo sapiens) (UniProt P03956); assay: Inhibition of MMP1 in human U2OS cells at 5 umol/L by peptide microarray-based fluorescence assay; format: cell-based; conditions: dose 5.0 µmol/L
T2 sequence (whole entry): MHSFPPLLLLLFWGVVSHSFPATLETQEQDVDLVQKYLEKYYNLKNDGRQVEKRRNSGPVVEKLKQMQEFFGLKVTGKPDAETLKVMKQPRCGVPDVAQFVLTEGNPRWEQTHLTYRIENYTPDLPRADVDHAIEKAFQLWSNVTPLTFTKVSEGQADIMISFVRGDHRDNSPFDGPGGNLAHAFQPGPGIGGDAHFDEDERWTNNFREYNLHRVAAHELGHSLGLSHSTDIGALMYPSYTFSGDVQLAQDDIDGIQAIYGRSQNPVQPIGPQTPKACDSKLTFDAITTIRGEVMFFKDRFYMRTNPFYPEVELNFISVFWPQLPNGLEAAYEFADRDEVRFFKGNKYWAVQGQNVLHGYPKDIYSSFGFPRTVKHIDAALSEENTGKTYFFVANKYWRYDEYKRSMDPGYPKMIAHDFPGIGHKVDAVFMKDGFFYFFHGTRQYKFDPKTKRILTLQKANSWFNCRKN

[21] = target: T2, Interstitial collagenase (Homo sapiens); assay: Inhibition of MMP1 in human U2OS cells at 1 umol/L by peptide microarray-based fluorescence assay; format: cell-based; conditions: dose 1.0 µmol/L
[22] = target: 72 kDa type IV collagenase (Homo sapiens, UniProt P08253); assay: Inhibition of MMP2 in human U2OS cells at 5 umol/L by peptide microarray-based fluorescence assay; format: cell-based; conditions: dose 5.0 µmol/L
Sequence of 72 kDa type IV collagenase (P08253 110-660 limits assumed): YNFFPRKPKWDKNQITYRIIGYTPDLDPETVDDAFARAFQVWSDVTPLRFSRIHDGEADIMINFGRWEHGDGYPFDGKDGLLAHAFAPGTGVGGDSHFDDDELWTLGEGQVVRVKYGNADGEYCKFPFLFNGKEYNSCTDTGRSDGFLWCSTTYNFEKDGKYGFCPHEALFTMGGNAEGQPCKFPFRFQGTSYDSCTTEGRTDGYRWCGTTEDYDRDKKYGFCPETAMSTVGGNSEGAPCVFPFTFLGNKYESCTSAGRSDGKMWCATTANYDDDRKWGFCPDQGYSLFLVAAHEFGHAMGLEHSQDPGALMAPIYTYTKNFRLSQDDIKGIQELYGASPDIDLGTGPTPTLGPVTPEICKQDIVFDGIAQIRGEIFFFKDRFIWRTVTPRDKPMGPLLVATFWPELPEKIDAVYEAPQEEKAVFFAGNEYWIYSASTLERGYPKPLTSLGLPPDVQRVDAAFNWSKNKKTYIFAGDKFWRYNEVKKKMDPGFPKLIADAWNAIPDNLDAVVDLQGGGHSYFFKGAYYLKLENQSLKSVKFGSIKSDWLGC

[23] = target: T3, Matrilysin (Homo sapiens) (UniProt P09237); assay: Inhibition of MMP7 in human U2OS cells at 5 umol/L by peptide microarray-based fluorescence assay; format: cell-based; conditions: dose 5.0 µmol/L
T3 sequence (whole entry): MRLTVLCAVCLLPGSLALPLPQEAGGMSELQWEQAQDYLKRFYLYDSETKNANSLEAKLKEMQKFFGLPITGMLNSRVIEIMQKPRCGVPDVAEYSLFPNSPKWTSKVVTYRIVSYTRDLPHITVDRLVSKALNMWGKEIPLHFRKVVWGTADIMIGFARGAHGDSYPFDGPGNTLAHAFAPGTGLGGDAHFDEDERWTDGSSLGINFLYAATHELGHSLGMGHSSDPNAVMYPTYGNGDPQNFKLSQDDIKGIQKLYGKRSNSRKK

[24] = target: Stromelysin-1 (Homo sapiens, UniProt P08254); assay: Inhibition of MMP3 in human U2OS cells at 5 umol/L by peptide microarray-based fluorescence assay; format: cell-based; conditions: dose 5.0 µmol/L
Sequence of Stromelysin-1 (P08254 100-477 limits assumed): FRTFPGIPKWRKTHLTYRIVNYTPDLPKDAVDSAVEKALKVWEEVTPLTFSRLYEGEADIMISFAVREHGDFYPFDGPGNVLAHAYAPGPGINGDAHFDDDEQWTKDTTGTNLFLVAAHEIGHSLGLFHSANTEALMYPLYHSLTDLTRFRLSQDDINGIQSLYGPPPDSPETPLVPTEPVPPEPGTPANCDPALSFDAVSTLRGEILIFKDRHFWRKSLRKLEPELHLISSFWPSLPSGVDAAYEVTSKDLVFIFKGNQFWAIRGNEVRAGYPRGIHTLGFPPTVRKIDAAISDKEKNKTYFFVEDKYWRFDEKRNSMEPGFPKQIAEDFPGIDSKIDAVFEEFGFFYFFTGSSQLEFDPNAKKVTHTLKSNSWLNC

## COc1cc(C2Oc3ccc([C@H]4Oc5cc(O)cc(O)c5C(=O)[C@@H]4O)cc3OC2CO)ccc1O (stereo partly specified)
[1]
  viability at 24 h, 2.5 µM: > 90%
[2]
  Activity: Non-Toxic
[3]
  Survival: 43 days
[4]
  viability at 24 h, 2.5 µM: > 90%
[5]
  viability at 24 h, 2.5 µM: > 90%
[6]
  inhibition: Active
[7]
  inhibition: > 50%
[8]
  viability at 24 h, 2.5 µM: > 90%
[9]
  inhibition: Active
[10]
  TGI: 60%
[11]
  viability at 24 h, 2.5 µM: > 90%
[12]
  inhibition: > 50%
[13]
  IC50: 0.25 µM
[14]
  Activity: Non-Toxic
[15]
  inhibition: Active
[16]
  viability at 24 h, 2.5 µM: > 90%
[17]
  Activity: Non-Toxic
[18]
  inhibition: Active
[19]
  viability at 24 h, 2.5 µM: > 90%

## C=CC(C)(C)c1cc(/C=C/C(=O)c2ccc(O)cc2)c(OC)cc1O
[20]
  inhibition: > 50%

## CNC(=O)[C@@H](NC(=O)[C@H](CC(C)C)[C@H](O)C(=O)NO)C(C)(C)C
[21]
  inhibition: Active

## COc1ccc(-c2cc(=O)c3c(OC)c(OC)c(OC)cc3o2)cc1OC
[22]
  inhibition: > 50%
[20]
  inhibition: > 50%
[23]
  inhibition: > 50%
[12]
  inhibition: > 50%
[24]
  inhibition: > 50%
